Experimental data from PubChem BioAssay AID1845202 (Molecular Pharmacology Branch, DTP, NCI, 2023).
pIC50: −log10 of the molar value.

System: DMS 114 tumor spheroids, viability % test/control
Experiment: Anticancer human tumor DMS 114 cell line growth inhibition;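 note: spheroids exposed to compounds for 7 days before read-out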;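 for viability, T/C: luminescence used as a proxy for viable cells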
Conditions: spheroids with HUVEC and MSC; for pIC50: curve of first compound; for viability, T/C: stronger effect = lower value
Method in brief: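 Complex tumor spheroids combined malignant cells with endothelial cells and mesenchymal stem cells. DNA-damaging drugs and DNA repair inhibitors were tested alone and in combination, at half-log dilutions down from clinical Cmax (top 10 microM if Cmax unknown), 0.25% DMSO final.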

[1] = second compound 1 µM, first compound 0.0316 µM
[2] = second compound 1 µM, first compound 0.1 µM
[3] = second compound 1 µM, first compound 0.316 µM
[4] = second compound 1 µM, first compound 1 µM
[5] = second compound 1 µM, first compound 3.16 µM
[6] = second compound 1 µM, first compound 10 µM
[7] = second compound 3.16 µM, first compound 0.0316 µM
[8] = second compound 3.16 µM, first compound 0.1 µM
[9] = second compound 3.16 µM, first compound 0.316 µM
[10] = second compound 3.16 µM, first compound 1 µM
[11] = second compound 3.16 µM, first compound 3.16 µM
[12] = second compound 3.16 µM, first compound 10 µM
[13] = second compound 10 µM, first compound 0.0316 µM
[14] = second compound 10 µM, first compound 0.1 µM
[15] = second compound 10 µM, first compound 0.316 µM
[16] = second compound 10 µM, first compound 1 µM
[17] = second compound 10 µM, first compound 3.16 µM
[18] = second compound 10 µM, first compound 10 µM
[19] = second compound 31.6 µM, first compound 0.0316 µM
[20] = second compound 31.6 µM, first compound 0.1 µM
[21] = second compound 31.6 µM, first compound 0.316 µM
[22] = second compound 31.6 µM, first compound 1 µM
[23] = second compound 31.6 µM, first compound 3.16 µM
[24] = second compound 31.6 µM, first compound 10 µM
[25] = second compound 100 µM, first compound 0.0316 µM
[26] = second compound 100 µM, first compound 0.1 µM
[27] = second compound 100 µM, first compound 0.316 µM
[28] = second compound 100 µM, first compound 1 µM
[29] = second compound 100 µM, first compound 3.16 µM
[30] = second compound 100 µM, first compound 10 µM

| SMILES | pIC50 (second compound 1 µM) | pIC50 (second compound 3.16 µM) | pIC50 (second compound 10 µM) | pIC50 (second compound 31.6 µM) | pIC50 (second compound 100 µM) | viability, T/C [1] | viability, T/C [2] | viability, T/C [3] | viability, T/C [4] | viability, T/C [5] | viability, T/C [6] | viability, T/C [7] | viability, T/C [8] | viability, T/C [9] | viability, T/C [10] | viability, T/C [11] | viability, T/C [12] | viability, T/C [13] | viability, T/C [14] | viability, T/C [15] | further results |
| --- | --- | --- | --- | --- | --- | --- | --- | --- | --- | --- | --- | --- | --- | --- | --- | --- | --- | --- | --- | --- | --- |
| Cc1cc(C)c(CNC(=O)c2cc(-c3ccc(CN4CCOCC4)cc3)cc3c2cnn3C2CCCC2)c(=O)[nH]1 + Cn1nnc2c(C(N)=O)ncn2c1=O | < 5.00 | < 5.00 | < 5.00 | < 5.00 | < 5.00 | 100% | 103% | 104% | 110% | 110% | 64.3% | 110% | 108% | 108% | 114% | 120% | 69.3% | 110% | 106% | 111% | viability, T/C [16]: 115%; viability, T/C [17]: 120%; viability, T/C [18]: 65.9%; viability, T/C [19]: 113%; viability, T/C [20]: 107%; viability, T/C [21]: 109%; viability, T/C [22]: 111%; viability, T/C [23]: 103%; viability, T/C [24]: 65.1%; viability, T/C [25]: 103%; viability, T/C [26]: 103%; viability, T/C [27]: 98.8%; viability, T/C [28]: 90.1%; viability, T/C [29]: 80.4%; viability, T/C [30]: 51.6% |
| CC1COCCN1c1cc(-c2ccnn2C)c2ccnc(-c3ccn[nH]3)c2n1 (stereo not given) + Cn1nnc2c(C(N)=O)ncn2c1=O | 7.35 | 7.25 | 7.47 | > 7.50 | > 7.50 | 56.6% | 33.9% | 22.8% | 11.8% | 10.1% | 10.4% | 63% | 35.4% | 24.9% | 13.2% | 9.36% | 10.9% | 51% | 35.5% | 21.7% | viability, T/C [16]: 11.9%; viability, T/C [17]: 10.2%; viability, T/C [18]: 11.7%; viability, T/C [19]: 36.9%; viability, T/C [20]: 30.3%; viability, T/C [21]: 20.5%; viability, T/C [22]: 13.5%; viability, T/C [23]: 9.89%; viability, T/C [24]: 10.1%; viability, T/C [25]: 24%; viability, T/C [26]: 21.3%; viability, T/C [27]: 16.1%; viability, T/C [28]: 10.8%; viability, T/C [29]: 8.42%; viability, T/C [30]: 10.2% |
| [2H]c1nc(C)nc([2H])c1-c1cc(NC[C@@H](C)c2cccc3c(C(=O)NC)ccnc23)ncn1 + Cn1nnc2c(C(N)=O)ncn2c1=O | < 5.00 | < 5.00 | < 5.00 | < 5.00 | < 5.00 | 94.5% | 104% | 98.4% | 99.5% | 97.3% | 98.5% | 108% | 100% | 99.7% | 102% | 99.9% | 101% | 110% | 109% | 98.2% | viability, T/C [16]: 110%; viability, T/C [17]: 95.5%; viability, T/C [18]: 94.8%; viability, T/C [19]: 104%; viability, T/C [20]: 99%; viability, T/C [21]: 113%; viability, T/C [22]: 107%; viability, T/C [23]: 110%; viability, T/C [24]: 95.2%; viability, T/C [25]: 93.3%; viability, T/C [26]: 105%; viability, T/C [27]: 98.3%; viability, T/C [28]: 94.7%; viability, T/C [29]: 84.7%; viability, T/C [30]: 87.6% |
| CC(C)n1c(=O)n(C)c2cnc3cc(F)c(-c4ccc(OCCCN5CCCCC5)nc4)cc3c21 + Cn1nnc2c(C(N)=O)ncn2c1=O | 5.19 | 5.14 | 5.18 | 5.22 | 5.36 | 95.4% | 100% | 101% | 98.9% | 75.4% | 34.2% | 104% | 105% | 104% | 106% | 94.8% | 32.9% | 103% | 111% | 105% | viability, T/C [16]: 93.5%; viability, T/C [17]: 79%; viability, T/C [18]: 33.4%; viability, T/C [19]: 99.6%; viability, T/C [20]: 96%; viability, T/C [21]: 101%; viability, T/C [22]: 95.3%; viability, T/C [23]: 71.2%; viability, T/C [24]: 33.8%; viability, T/C [25]: 85.8%; viability, T/C [26]: 81.6%; viability, T/C [27]: 82.9%; viability, T/C [28]: 84.8%; viability, T/C [29]: 58.8%; viability, T/C [30]: 26.5% |
